Drawing on PubChem BioAssay AID1671295, this text covers IC50 for 1 molecule.

The structures appear in SMILES notation.

The assay deals with Receptor tyrosine-protein kinase erbB-4 (Homo sapiens) (UniProt Q15303). Kind of assay: inhibition of HER4 tyrosine kinase activity – biochemical, Z'-LYTE FRET, direct format, recombinant human, dose response (AID 1671295). The note with it: recombinant ERBB4.
Chain of Receptor tyrosine-protein kinase erbB-4 (Homo sapiens) (Q15303 whole entry, looked up): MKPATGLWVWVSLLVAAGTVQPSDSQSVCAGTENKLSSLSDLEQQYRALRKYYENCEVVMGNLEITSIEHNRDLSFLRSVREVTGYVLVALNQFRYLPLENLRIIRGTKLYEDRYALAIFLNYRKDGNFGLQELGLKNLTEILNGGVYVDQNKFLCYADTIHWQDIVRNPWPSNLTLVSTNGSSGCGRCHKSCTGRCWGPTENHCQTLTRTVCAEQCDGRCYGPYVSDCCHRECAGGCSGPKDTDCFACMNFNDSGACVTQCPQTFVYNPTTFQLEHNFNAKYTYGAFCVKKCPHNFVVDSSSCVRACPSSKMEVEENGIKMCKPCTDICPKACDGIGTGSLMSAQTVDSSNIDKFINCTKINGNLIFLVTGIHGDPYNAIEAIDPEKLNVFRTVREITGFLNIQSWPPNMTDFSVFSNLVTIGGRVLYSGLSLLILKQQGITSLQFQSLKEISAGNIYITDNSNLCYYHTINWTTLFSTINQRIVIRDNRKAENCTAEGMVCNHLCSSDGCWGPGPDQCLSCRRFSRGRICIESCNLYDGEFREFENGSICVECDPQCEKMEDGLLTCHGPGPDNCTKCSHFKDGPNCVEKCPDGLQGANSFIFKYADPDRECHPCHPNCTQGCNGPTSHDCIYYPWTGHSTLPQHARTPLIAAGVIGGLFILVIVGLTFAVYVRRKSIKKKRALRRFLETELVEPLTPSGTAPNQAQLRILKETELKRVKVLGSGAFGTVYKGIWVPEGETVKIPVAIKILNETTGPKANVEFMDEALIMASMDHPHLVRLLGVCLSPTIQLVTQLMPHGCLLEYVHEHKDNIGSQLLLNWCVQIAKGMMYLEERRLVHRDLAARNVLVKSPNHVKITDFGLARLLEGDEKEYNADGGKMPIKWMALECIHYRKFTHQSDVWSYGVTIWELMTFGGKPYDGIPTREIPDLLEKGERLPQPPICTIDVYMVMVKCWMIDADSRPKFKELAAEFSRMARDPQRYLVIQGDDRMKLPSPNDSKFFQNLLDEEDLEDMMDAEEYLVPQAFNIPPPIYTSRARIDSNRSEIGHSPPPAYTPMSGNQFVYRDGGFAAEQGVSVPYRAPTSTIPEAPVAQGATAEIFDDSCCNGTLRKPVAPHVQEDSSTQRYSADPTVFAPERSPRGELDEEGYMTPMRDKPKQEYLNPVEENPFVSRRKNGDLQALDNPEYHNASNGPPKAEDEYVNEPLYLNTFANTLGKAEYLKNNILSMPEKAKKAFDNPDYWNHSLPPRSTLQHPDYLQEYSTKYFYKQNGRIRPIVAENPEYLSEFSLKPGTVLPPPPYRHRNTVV

With `COc1cc2ncnc(Nc3cccc(Cl)c3)c2cc1OC`, the IC50 (in general, the concentration needed to halve the response being measured) is 154 nM.
